Test results taken from BindingDB's records for doi:10.1016/j.bmcl.2006.10.063 (Astrazeneca R&D Boston, 2007).

Biological target: T1, Amine oxidase [flavin-containing] A (Homo sapiens, UniProt P21397)
T1 sequence (P21397 whole entry): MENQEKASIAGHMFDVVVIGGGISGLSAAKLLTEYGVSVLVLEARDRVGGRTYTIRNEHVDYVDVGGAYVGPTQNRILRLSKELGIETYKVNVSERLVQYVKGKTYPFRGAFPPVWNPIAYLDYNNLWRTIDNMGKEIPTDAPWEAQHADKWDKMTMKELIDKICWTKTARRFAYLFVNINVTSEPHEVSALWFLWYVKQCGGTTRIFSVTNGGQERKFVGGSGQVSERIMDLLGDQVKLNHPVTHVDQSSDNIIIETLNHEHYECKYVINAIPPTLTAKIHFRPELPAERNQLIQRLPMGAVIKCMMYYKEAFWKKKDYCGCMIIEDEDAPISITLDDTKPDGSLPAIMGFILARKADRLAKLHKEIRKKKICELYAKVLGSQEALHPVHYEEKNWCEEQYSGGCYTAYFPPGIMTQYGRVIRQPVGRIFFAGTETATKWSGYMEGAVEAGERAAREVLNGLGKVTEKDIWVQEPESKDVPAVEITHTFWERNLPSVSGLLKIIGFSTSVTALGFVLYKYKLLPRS
Experiment: Inhibition human liver MAOA activity

| SMILES | Ki [µM] |
| --- | --- |
| Cc1cn(C[C@H]2CN(c3ccc(-c4cc(C)no4)c(F)c3)C(=O)O2)nn1 [(5R)-3-(3-fluoro-4-(3-methylisoxazol-5-yl)phenyl)-5-((4-methyl-1H-1,2,3-triazol-1-yl)methyl)oxazolidin-2-one] | 22.6 |
| Cc1cc(-c2ccc(N3C[C@H](Cn4ccnn4)OC3=O)cc2F)on1 [(5R)-5-((1H-1,2,3-triazol-1-yl)methyl)-3-(3-fluoro-4-(3-methylisoxazol-5-yl)phenyl)oxazolidin-2-one] | 2.9 |
| Cc1cc(-c2ccc(N3C[C@H](CNc4ccon4)OC3=O)cc2F)on1 [(5S)-3-(3-fluoro-4-(3-methylisoxazol-5-yl)phenyl)-5-((isoxazol-3-ylamino)methyl)oxazolidin-2-one] | 0.42 |
| CC(=O)NC[C@H]1CN(c2ccc(-c3cc(C)no3)c(F)c2)C(=O)O1 [N-(((S)-3-(3-fluoro-4-(3-methylisoxazol-5-yl)phenyl)-2-oxooxazolidin-5-yl)methyl)acetamide] | 0.95 |
| CC(=O)NC[C@H]1CN(c2ccc(N3CCOCC3)c(F)c2)C(=O)O1 [Zyvox] | 20 |
